Data from US6362219B1 (Council of Scientific and Industrial Research, priority 1999, dated 2002).
Values joined by “and” are separate entries in the source; they are usually repeats but may differ in a detail not shown here. Equal entries are not always repeated. Where two headings read alike, the source gives them in different places.

Key:
[1] = cited from earlier work
[2] = oral tablets, 60 mg dose, cited from earlier work
[3] = system: multi-drug resistant P. yoelii nigeriensis; experiment: Blood schizontocidal activity in Swiss mice by rectal route; format: in vivo, Plasmodium yoelii nigeriensis; settings: for Cure-rate Day 30 (%) / Parasitaemia % Day 5 / Parasitaemia % Day 7: in oil; for Parasitaemia % Day 5 / Parasitaemia % Day 7: 8 mice
Procedure: Test Parasite: Multi-drug resistant Plasmodium yoeli nigerienes (Rodent malaria strian). The P. yoeli nigerienses is a multi-drug resistant strain which is resistant to high oral doses of chloroquine (128 mg/kg×4), amodiaquine (128 mg/kg×4), meperaine (128 mg/kg×4), mefloquine (128 mg/kg×4), quinine (400 mg/kg×4) and halofantrine (32 mg/kg×4). […]. […] For higher doses (15 and 20 mg/kg) the drug was given in divided doses by rectal route. The tail blood smears of the mice were examined periodically after Giemsa staining upto 30 days post-infections.
Drug is dissolved in sterile ground nut oil for adminisitration.

[4] = cited from earlier work; for maximum plasma concentration by im route: in ng/mL
[5] = oral artesunate; 95/Cl 387-9410, range 79-1394; cited from earlier work
[6] = system: multi-drug resistant P. yoelii nigeriensis; experiment: Blood schizontocidal activity in Swiss mice by oral route; format: in vivo, Plasmodium yoelii nigeriensis; settings: oral in oil, 30 mg/kg × 5, mice 25 ± 1 g
Procedure: Test Parasite: Multi-drug resistant Plasmodium yoeli nigerienes (Rodent malaria strian). The P. yoeli nigerienses is a multi-drug resistant strain which is resistant to high oral doses of chloroquine (128 mg/kg×4), amodiaquine (128 mg/kg×4), meperaine (128 mg/kg×4), mefloquine (128 mg/kg×4), quinine (400 mg/kg×4) and halofantrine (32 mg/kg×4). […].

[7] = Safety in healthy mice; format: in vivo; settings: 30 mg/kg DHA × 5, 20 ± 1 g mice
[8] = system: multi-drug resistant strain of P. yoelii nigeriensis; experiment: Blood schizontocidal activity in Swiss mice and baby mice by intramuscular route; format: in vivo, Plasmodium yoelii nigeriensis; settings: day 30
Procedure: Test Parasite: Multi-drug resistant Plasmodium yoeli nigerienes (Rodent malaria strian). The P. yoeli nigerienses is a multi-drug resistant strain which is resistant to high oral doses of chloroquine (128 mg/kg×4), amodiaquine (128 mg/kg×4), meperaine (128 mg/kg×4), mefloquine (128 mg/kg×4), quinine (400 mg/kg×4) and halofantrine (32 mg/kg×4). […]. […] The tail blood smears of the mice were examined periodically after Giemsa staining upto 30 days post-infection.
Drug treatment was started on day 0 (ie day of infection). Mice showing negative blood slide upto day 30 were considered as cured.

[9] = cited from earlier work; remark: listed apart in the source
[10] = cited from earlier work; remark: listed apart in the source
[11] = system: malaria; settings: cited from earlier work
[12] = system: P. falcipurum; settings: rectal suppository; cited from earlier work
[13] = rabbit, in vivo; cited from earlier work
[14] = system: malaria; settings: cited from earlier work; remark: listed apart in the source
[15] = dog, in vivo; cited from earlier work
[16] = aqueous solution at pH 7-8; cited from earlier work
[17] = 5 mg/kg × 7, Swiss mice 20 ± 1 g
[18] = 20 mg/kg × 7, Swiss mice 20 ± 1 g
[19] = following oral artesunate administration

C[C@H]1[C@@H](O)O[C@@H]2O[C@@]3(C)CC[C@H]4[C@H](C)CC[C@@H]1[C@@]24OO3 [DHA, Dihydroartemisinin]
Elimination half life ([1]; oral, rats): 296 ± 43.8 min | area under plasma concentration time curve ([1]; oral, rats): 9615±56 ngh ml^−1 | peak plasma levels of dihydroartemisinin ([2]; four subjects): 0.26 to 0.71 µg/mL | tolerability ([2]; six cases): well tolerated in 2 subjects while 4 subjects experienced mild headache, nausea or vomiting | complete excretion by [2]: ≤ 6 h | elimination half-life [2]: 42.6 to 87 min | number of mice negative (-ve) Day 5 ([3]; 5 mg/kg × 7, of 8 mice): (8) 4-ve | number of mice negative (-ve) Day 7 ([3]; 5 mg/kg × 7, of 8 mice): (8) 4-ve | Cure-rate Day 30 (%) [3, 17]: 25% | Parasitaemia % Day 5 [3, 17]: 0.83 ± 1.31% | Parasitaemia % Day 7 [3, 17]: 1.12 ± 1.55% | Cure-rate Day 30 (%) [3, 18]: 87% | Parasitaemia % Day 5 [3, 18]: 0.0% | Parasitaemia % Day 7 [3, 18]: 0.0% | maximum plasma concentration by im route ([4]; rats): 1579±443 | Absorption 0-8 h ([4]; rats, single IM dose): 85.4±12.1% and 85.4% | Area under plasma concentration ([4]; rats, single IM dose): 2720 ng·h/mL | Elimination half life ([4]; rats, single IM dose): 266 ± 16.2 min | Mean absorption time ([4]; rats, single IM dose): 0.21 h | Time of maximum plasma Concentration ([4]; rats, single IM dose): 17.5 min | maximum plasma concentration ([4]; rats, single IM dose): 1579 ng/mL | peak plasma concentration of DHA [5]: 664 ng of DHA/ml | Cure rate (%) Day 30 [6]: 100% | Safety in Healthy mice [7]: Safe 8/8 | Cure rate (%) ([8]; Expt. I, IM in oil, 5 mg/kg × 5, mice 20 ± 1 g): 100% (8/8) | Cure rate (%) ([8]; Expt. II, im in oil, 5 mg/kg × 5, mice 20 ± 1 g): 100% (8/8) | Cure rate (%) ([8]; Expt. II, im in oil, 10 mg/kg × 5, mice 20 ± 1 g): 100% (8/8) | Cure rate (%) ([8]; Expt. III, im in oil, 5 mg/kg × 5, baby mice 12 ± 1 g): 100% (9/9) | DHA level compared to that of artesunate [9, 19]: 5 fold | maximum plasma level [9, 19]: 0.57 ± 0.18 µg/mL | DHA activity AUC ([10]; im route): 3445 n Mlo l^−1 h | duration of activity due to DHA ([10]; im route): over 30 h | duration of effective level ([10]; oral dose): ≤ 10 h

CCO[C@H]1O[C@@H]2O[C@@]3(C)CC[C@H]4[C@H](C)CC[C@@H]([C@H]1C)[C@@]24OO3 [arteether]
Elimination half life ([1]; oral, rats): 107 ± 28.2 min | area under plasma concentration time curve ([1]; oral, rats): 298±68 ngh ml^−1 | maximum plasma concentration ([1]; oral, rats): 324 ± 10 ng/mL | maximum plasma concentration by im route ([4]; rats): 160±12.4 | Distribution half life ([4]; rats, single IM dose): 20.4 ± 4.2 min | Mean absorption time ([4]; rats, single IM dose): 0.25 ± 0.06 h | Time of maximum plasma Concentration ([4]; rats, single IM dose): 41.4 ± 14.7 min | maximum plasma concentration ([4]; rats, single IM dose): 160.7 ± 12.4 ng/mL | Absorption 0-8 h ([4]; rats, single IM dose, listed as AE): 34.0±9.6%

CO[C@H]1O[C@@H]2O[C@@]3(C)CC[C@H]4[C@H](C)CC[C@@H]([C@H]1C)[C@@]24OO3 [artemether]
Elimination half life ([1]; oral, rats): 122 ± 10.8 min | area under plasma concentration time curve ([1]; oral, rats): 306±52 ngh ml^−1 | maximum plasma concentration ([1]; oral, rats): 381 ± 113 ng/mL | maximum plasma concentration by im route ([4]; rats): 692±234 | Absorption 0-8 h ([4]; rats, single IM dose): 54.2±25.9% and 54.3% | Area under plasma concentration ([4]; rats, single IM dose): 1010 ng·h/mL | Distribution half life ([4]; rats, single IM dose): 13.8 min | Elimination half life ([4]; rats, single IM dose): 107 ± 48 min | Mean absorption time ([4]; rats, single IM dose): 0.14 h | Time of maximum plasma Concentration ([4]; rats, single IM dose): 28.8 min | maximum plasma concentration ([4]; rats, single IM dose): 692 ng/mL

C[C@@H]1CC[C@H]2[C@@H](C)C(=O)O[C@@H]3O[C@@]4(C)CC[C@@H]1[C@]32OO4 [artemisinin]
cure rate ([11]; high doses upto 5.0 g): 55% | recovery from coma [12]: 24 (18-30) h

C[C@H]1[C@H](OC(=O)CCC(=O)O)O[C@@H]2O[C@@]3(C)CC[C@H]4[C@H](C)CC[C@@H]1[C@@]24OO3 [artesunate]
Elimination half life ([1]; rat, in vivo, po): 80.4 ± 1560 min | area under plasma concentration time curve ([1]; rat, in vivo, po): 217±34 ngh ml^−1 | maximum plasma concentration ([1]; rat, in vivo, po): 208 ± 25 ng/mL | elimination half-life [13]: 2 to 4 min | times more potent than artemisinin [14]: 3.2 times | cure rate ([11]; upto 750 mg): 70-90% | Distribution half life ([4]; rat, in vivo, im): 9 ± 3.6 min | Elimination half life ([4]; rat, in vivo, im): 32.4 ± 8.4 min | Time of maximum plasma Concentration ([4]; rat, in vivo): 15.0 ± 4.1 min | elimination half-life [15]: 27 min | maximum plasma level ([9]; in vivo, po): 0.12 ± 0.11 µg/mL

C[C@H]1[C@H](OC(=O)CCC(=O)[O-])O[C@@H]2O[C@@]3(C)CC[C@H]4[C@H](C)CC[C@@H]1[C@@]24OO3.[Na+] [sodium artesunate]
time of hydrolysis to DHA [16]: ≤ 1 h
